According to patent EP0889884B1, “1,2,4-TRIAZINE DERIVATIVES FOR THE INHIBITION OF PROTEIN GLYCOSYLATION” (ALTEON Inc., priority 1996, dated 1997):
Counter-ions that a name gives are not always drawn.

What was measured:
[1] = Inhibition of cross-linking of N-acetyl glycyl-lysine methyl ester in the presence of ribose (fluorescence); assay type: biochemical; details: 0.5 M sodium phosphate buffer pH 7.4, 37° C, 16-24 hours, fluorescence 350/400 nm
Procedure: The following method was used to evaluate the ability of the compounds of the present invention to inhibit the cross-linking of N-acetyl glycyl-lysine methyl ester in the presence of ribose. […] Reaction mixtures are prepared as follows: [table] […] At the end of the incubation period reaction mixture is diluted with 3 ml distilled water and the fluorescence is read using an excitation wavelength of 350 nm and emission wavelength of 400 nm.

[2] = test system: fixed protein (gelatin, i.e., collagen) surface; test: Surface browning experiment on gelatin/paper disks in glucose-6-phosphate; details: 100 mM glucose-6-phosphate, one week at 50°C; Peridex® at a final concentration of 0.04% chlorhexidine
Procedure: To further study the ability of inhibitors of nonenzymatic browning to prevent the discoloration of protein on a surface, such as that which occurs on the tooth surface, the following surface browning experiment is performed. As a substitute for a pellicle-covered tooth surface, unexposed and developed photographic paper is used to provide a fixed protein (gelatin, i.e., collagen) surface on a paper backing. Five millimeter circles are punched and immersed for one week at 50°C in a solution of 100 mM glucose-6-phosphate in a 0.5 M phosphate buffer, pH 7.4, containing 3 mM sodium azide. […] In addition to the glucose-6-phosphate, chlorhexidine and/or a compound of Formula I are included. After incubation, the gelatin/paper disks are rinsed with water, observed for brown color, and photographed.

| Molecule | IC50 [1] | brown color of gelatin/paper disks [2] |
| --- | --- | --- |
| Nc1nnc(Cc2ccccc2[N+](=O)[O-])c(=O)n1N [3,4-diamino-6-(2'-nitrobenzyl)-1,2,4-triazine-5(4H)-one hydrochloride] | 900 µM |  |
| Nc1nnc(Cc2ccc(O)cc2)c(=O)n1N [3,4-diamino-6-(4-hydroxybenzyl)-1,2,4-triazine-5(4H)-one hydrochloride] | 4400 µM |  |
| Cc1nnc(N)n(N)c1=O [3,4-diamino-6-methyl-1,2,4-triazine-5(4H)-one] | 1230 µM |  |
| CC(C)Cc1nnc(N)n(N)c1=O [3,4-diamino-6-(2-methypropyl)-1,2,4-triazine-5(4H)-one] | 1160 µM |  |
| COc1ccc(C=Cc2nnc(N)n(N)c2=O)cc1OC [3,4-diamino-6-(3,4-dimethoxystyryl)-1,2,4-triazine-5(4H)-one hydrochloride] | 350 µM |  |
| NNC(=O)c1nnc(N)n(N)c1=O [6-(3',4'-diamino-5(4H)-one-1,2,4-triazinyl)hydrazide] | 730 µM |  |
| CC(C)(CO)c1nnc(N)n(N)c1=O [3,4-diamino-6-(1',1'-dimethyl-2'-hydroxyethyl)-1,2,4-triazine-5(4H)-one] | 970 µM |  |
| Cc1nnc(NN)n(N)c1=O [4-amino-3-hydrazino-6-methyl-1,2,4-triazin-5(4H)-one hydrochloride] | < 3000 µM |  |
| CCC(C)c1nnc(N)n(N)c1=O (centres unmarked) [3,4-diamino-6-(1-methylpropyl)-1,2,4-triazine-5(4H)-one] | 1400 µM |  |
| Nc1nnc(Cc2ccccc2)c(=O)n1N [3,4-diamino-6-benzyl-1,2,4-triazine-5(4H)-one hydrochloride] | 1200 µM |  |
| NNC(=O)CCc1nnc(N)n(N)c1=O [3-[6'-(3',4'-diamino-5'(4H)-one-1',2',4'-triazinyl)]-propionic hydrazide hydrochloride] | 1500 µM |  |
| NNc1nnc(Cc2ccc(O)cc2)c(=O)n1N [4-amino-3-hydrazino-6-(4'-hydroxybenzyl)-1,2,4-triazin-5(4H)-one hydrochloride] | > 1000 µM |  |
| CCOC(=O)c1nnc(N)n(N)c1=O [3,4-diamino-6-carboxyethyl-1,2,4-triazine-5(4H)-one hydrochloride] | 720 µM |  |
| NNc1nncc(=O)n1N [4-amino-3-hydrazino-1,2,4-triazin-5(4H)-one hydrochloride] | > 10000 µM |  |
| CCOC(=O)CCc1nnc(N)n(N)c1=O [3,4-diamino-6-(2'-ethoxycarbonylethyl)-1,2,4-triazine-5(4H)-one hydrochloride] | 840 µM |  |
| CCCCCCC(C(=O)OCC)c1nnc(N)n(N)c1=O (centres unmarked) [3,4-diamino-6-(1'-ethoxycarbonylheptyl)-1,2,4-triazine-5(4H)-one hydrochloride] | 480 µM |  |
| Nc1nnc(CCc2ccccc2)c(=O)n1N [3,4-diamino-6-phenethyl-1,2,4-triazine-5(4H)-one hydrochloride] | 2700 µM |  |
| 2-methyl-[6'-(3',4'-diamino-5(4H)-one-1,2,4-triazinyl)]hydrazide | 830 µM |  |
| CCOC(=O)C(C)c1nnc(N)n(N)c1=O (centres unmarked) [3,4-diamino-6-(1'-ethoxycarbonylethyl)-1,2,4-triazine-5(4H)-one hydrochloride] | 1650 µM |  |
| [H]/N=C(\N/C(=N/[H])NCCCCCCNC(=N)NC(=N)Nc1ccc(Cl)cc1)Nc1ccc(Cl)cc1 [chlorhexidine] |  | significant browning |
| CC(C)c1nnc(N)n(N)c1=O [3,4-diamino-6-isopropyl-1,2,4-triazine-5(4H)-one hydrochloride] | 1050 µM |  |
| CCCc1nnc(N)n(N)c1=O [3,4-diamino-6-propyl-1,2,4-triazine-5(4H)-one hydrochloride] | 1300 µM |  |
| Nc1nnc(C2CC2)c(=O)n1N [3,4-diamino-6-cyclopropyl-1,2,4-triazine-5(4H)-one] | 2000 µM |  |
| CCc1nnc(N)n(N)c1=O [3,4-diamino-6-ethyl-1,2,4-triazine-5(4H)-one hydrochloride] | 2000 µM |  |
| COc1cccc(C(=O)Cc2nnc(N)n(N)c2=O)c1 [3,4-diamino-6-(3'-methoxyphenylcarbonylmethylene)-1,2,4-triazine-5(4H)-one hydrochloride] | > 10000 µM |  |
| Nc1nnc(CCC(=O)O)c(=O)n1N [3,4-diamino-6-(2'-carboxyethyl)-1,2,4-triazine-5(4H)-one] | 1970 µM |  |
